Results reported in patent US10174005B2, “Fused pyrimidines as inhibitors of p97 complex” (Cleave Biosciences, Inc., priority 2014, dated 2019).
Where two headings read alike, the source gives them in different places.

Tests used:
p97 = p97 (Homo sapiens, UniProt P55072); experiment: P97 ATPase biochemical assay (ADP Glo); conditions: 20 nM p97, 20 μM ATP, 37° C. for 15 minutes
Method: The ATPase assay is performed according the following protocol: Purified enzyme (20 nM p97), substrate (20 μM ATP) and a dose titration of compounds are mixed in buffer (50 mM TRIS pH 7.5, 20 mM MgCl2, 0.02% TX-100, 1 mM DTT, 0.2% (v/v) glycerol) and incubated at 37° C. for 15 minutes. The reaction is terminated and the level of product generated is measured using the ADP Glo Assay Kit (Promega, Madison Wis.). Plotting product generated versus compound concentration and using a four-parameter fit model generates an IC50 value for each compounds.
The p97 assay is an initial screening assay used to determine inhibitory activity of the fused pyrimidine compounds of the invention against the p97 complex. As discussed above, inhibition of activity of the p97 proteosome complex can enable apoptosis and cause elimination of neoplastic cells (cancer cells). The method follows that of Christianson in Nat. Cell Biol., (2011) 14:93.
Assay Buffer is a mixture of 50 mM TRIS pH 7.5, 20 mM MgCl2, 0.02% TX-100, 1 mM DTT and 0.2% (v/v) Glycerol. The well plate is Platetype: Corning 3674, 384w plate. The identification kit is an ADP glo kit (Promega): stop buffer, detection reagent.
Serial dilute compound in DMSO in a 1:3.33-fold 10 point serial dilution.
in each well of 384w plate add the following reagents:
0.5 μL compound serial diluted in DMSO (Final Conc. 10%)
2 μL ATP (Final Conc.=20 uM, diluted in assay buffer)
2.5 μL p97 (Final Conc.=20 nM, diluted in assay buffer)
Incubate at 37 deg C. for 15 min.
Add 5 μL of stop buffer, incubate at RT for 40 min.
Add 10 μL of detection reagent, incubate at RT for 30 min.
Read luminescence on Envision plate reader.
Upon obtaining the data from the luminescence reading, the data may be analyzed as follows:
Normalize luminescence data using no enzyme (full inhibition) and no compound (no inhibition) controls. Plot normalized luminescence data against log-transformed concentration values and fit to a sigmoidal curve to determine IC50 values (done in Collaborative Drug Discovery software).

A549 cells = experiment: Cultured cancer cell viability assay (cell titer glo, CTG) in A549 cells; type: cell-based; conditions: Homo sapiens, read-out: A549 CTG IC50
Description: Anti-tumor effects are monitored in cultured cancer cells after several days of compound treatment. The cell titer glo assay (Promega) measures the amount of ATP present as a proxy for cellular viability. Cellular counting is done using high-content microscopy followed by image analysis. A hanging drop 3D-culture system (3D Biomatrix) is used followed by cell titer glo to measure growth in a tumor-like environment.
The cellular assay provides information about the anti-neoplastic activity of the compounds of the invention. The compounds are tested against cultured cancer cells to determine whether or not the compounds of the invention are capable of intersecting with cancer cells to minimize or eliminate such cells. The assay involves establishing colonies of such cells and then treating them with the test compound under specified conditions and analysis regima to determine results.
(§1) Cell Plating: • Seed cells ˜16 hrs prior to compound treatment • Plate 25 μL of A549 cells in every well of 384-well plate using multidrop. • Two (2) black plates for IF at 2500 cells/well • Let plate sit at room temp for 10-15 minutes prior to putting in incubator to • allow cells to stick in middle of plate. • One (1) white plate for viability at 500 cells/well.
(§2) Day 2 Treatment of Cultured Cells with Test Compounds • Treat Cells: • Serial dilute compounds with a 10 point 2-fold serial dilution in DMSO to make 250× stock compound solution • Dilute compounds 1:125 in cell culture media to make a 2× solution Add • 25 μl of dilution compounds to cell plates in well duplicates Put cells back in incubator (6 hr incubation for black plates, 72 hr incubation for white plates).
Viability Assay: • Thaw an aliquot of frozen cell titer glo (Promega G7572) at room temperature. • Add 45 mL of NaCl/PBS solution to 5 ml of cell titer glo (10×). • Remove white plates from incubator, leave at room temp for 30 minutes. • Add 25 μl of diluted cell titer glo to each well. • Shake plate for >1 minute. • Incubate plate for >5 minutes to stabilize luminescence. • Luminescence is stable for up to 3 hours. • Read luminescence on plate reader

[1] = test system: K48-Ub (lysine-48 chain linkage of poly-ubiquitin) in A549 cells; experiment: A549 K48-Ub accumulation, immunofluorescence high-content imaging; type: cell-based; conditions: Homo sapiens, 6 hr incubation
Method: Image-analysis is used to generate quantitative data from these assays that can be fit to a four-parameter sigmoid curve to derive IC50 values. Substrates of the ubiquitin-proteasome system, such as p53, are monitored after tumor cell lines are incubated with compounds for several hours. Accumulation of these proteins indicates an inhibition of proteasome-mediated degradation. Accumulation of lysine-48 chain linkage of poly-ubiquitin is also monitored by immunofluorescence as an indicator of ubiquitin-proteasome system inhibition. Both LC3 and SQSTM1 are mediators of autophagy. The localization and amounts of these proteins are monitored by immunofluorescence and report on the activity and inhibition of autophagy in response to p97 inhibition.
as §1, §2
Fix/Stain Black Plates: • Incubate cells in black plates with compound at 37 deg C. for 6 hrs. add 15 μL of 16% Paraformaldehyde (PFA) directly into media of each well, incubate at room temp for 5 min, flick plate and wash in 50 μL of PBS block in 50 μL of Blocking Buffer for 30 minutes (can go up to several hours) • Blocking buffer: 1×PBS, 1% BSA, 0.3% Triton-X 100, Hoechst (1:10,000) incubate in 25 μL of primary antibody in blocking buffer at 4 deg C. over night
Secondary Antibodies: • AlexaFluor488 Goat anti-Rabbit 1:2,000 (Life Tech A11008) • AlexaFluor555 Goat anti-Mouse 1:2.000 (Life Tech A21422)
Day 3/4 • Black Plate Staining (cont): • wash black plates 3× in 50 μL PBS (˜5 min each) incubate in 25 μl of secondary antibody (1:2,000) in blocking buffer for 1-2 hrs at room temp (alexafluor488-anti-Rabbit/alexafluor555-anti-Mouse) • wash 4× in 50 μL PBS (˜5 min each) • leave plates in PBS for imaging • clean bottom of plates with 70% EtOH
Imaging: • Image plates in high content microscope with 405 nm, 488 nm and 555 nm filters
Data Analysis: • Nuclear counts and cellular intensities of each markers are measured using Hoechst as a nuclear marker with an automated image analysis protocol using Matlab software (Math Works)

[2] = A549 cells, 72 hr incubation, cell titer glo

Sequence of p97 (P55072 whole entry): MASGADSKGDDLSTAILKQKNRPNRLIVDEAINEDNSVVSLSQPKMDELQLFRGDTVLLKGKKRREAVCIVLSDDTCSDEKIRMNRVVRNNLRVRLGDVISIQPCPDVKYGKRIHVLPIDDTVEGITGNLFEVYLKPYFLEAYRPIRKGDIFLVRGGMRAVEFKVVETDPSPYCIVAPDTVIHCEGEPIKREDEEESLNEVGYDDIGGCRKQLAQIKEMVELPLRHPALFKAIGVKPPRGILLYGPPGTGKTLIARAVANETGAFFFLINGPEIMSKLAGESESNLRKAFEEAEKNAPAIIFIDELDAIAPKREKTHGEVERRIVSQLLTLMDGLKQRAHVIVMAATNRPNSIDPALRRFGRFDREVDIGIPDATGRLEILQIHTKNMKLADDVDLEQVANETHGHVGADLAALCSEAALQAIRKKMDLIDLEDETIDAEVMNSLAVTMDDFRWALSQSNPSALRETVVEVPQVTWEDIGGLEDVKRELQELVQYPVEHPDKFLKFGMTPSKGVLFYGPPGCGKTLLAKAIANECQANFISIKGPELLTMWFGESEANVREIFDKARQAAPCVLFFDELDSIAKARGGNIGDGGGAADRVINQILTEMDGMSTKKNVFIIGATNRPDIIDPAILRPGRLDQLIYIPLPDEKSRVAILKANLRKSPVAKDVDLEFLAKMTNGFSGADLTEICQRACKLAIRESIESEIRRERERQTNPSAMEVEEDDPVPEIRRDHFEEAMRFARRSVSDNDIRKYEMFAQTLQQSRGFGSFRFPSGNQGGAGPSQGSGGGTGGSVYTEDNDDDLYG

Compound	IC50 (p97) [nM]	IC50 [1] [nM]	IC50 (A549 cells; [2]) [nM]	IC50 (A549 cells; A549, 72 h) [nM]
Cc1cc2c(C(N)=O)cccc2n1-c1nc2c(c(NCc3ccccc3)n1)CCNCC2 [FF20, 1-(4-(benzylamino)-6,7,8,9-tetrahydro-5H-pyrimido[4,5-d]azepin-2-yl)-2-methyl-1H-indole-4-carboxamide]	< 300			< 3000
Cc1cc2c(C(N)=O)cccc2n1-c1nc(NCc2ccccc2)c2c(n1)OCC2 [FF08, 1-(4-(benzylamino)-5,6-dihydrofuro[2,3-d]pyrimidin-2-yl)-2-methyl-1H-indole-4-carboxamide]	< 100	< 3000	< 3000	
Cc1cc2c(CN)cccc2n1-c1nc(NCc2ccccc2)c2c(n1)OCCC2 [FF31, 2-(4-(aminomethyl)-2-methyl-1H-indol-1-yl)-N-benzyl-6,7-dihydro-5H-pyrano[2,3-d]pyrimidin-4-amine]	< 300			
NC(=O)c1cccc2c1cnn2-c1nc2c(c(NCc3cccc(F)c3)n1)CCCC2 [FF14, 1-(4-((3-fluorobenzyl)amino)-5,6,7,8-tetrahydroquinazolin-2-yl)-1H-indazole-4-carboxamide]	< 100		< 3000	
CN1CCCc2nc(-n3ncc4c(C(N)=O)cccc43)nc(NCc3cccc(F)c3)c21 [FF11, 1-(4-((3-fluorobenzyl)amino)-5-methyl-5,6,7,8-tetrahydropyrido[3,2-d]pyrimidin-2-yl)-1H-indazole-4-carboxamide]	< 100			
Cc1oc2c(C(N)=O)cccc2c1-c1nc2c(c(NCc3cccc(F)c3)n1)COCC2 [FF22, 3-(4-((3-fluorobenzyl)amino)-7,8-dihydro-5H-pyrano[4,3-d]pyrimidin-2-yl)-2-methylbenzofuran-7-carboxamide]	< 1000			
COc1nc2c(C(N)=O)cccc2n1-c1nc(NCc2cccc(F)c2)c2c(n1)OCCC2 [FF15, 1-(4-((3-fluorobenzyl)amino)-6,7-dihydro-5H-pyrano[2,3-d]pyrimidin-2-yl)-2-methoxy-1H-benzo[d]imidazole-4-carboxamide]	< 30			< 3000
Cc1cc2c(C(N)=O)cccc2n1-c1nc(NCc2ccccc2)c2c(n1)C(C)CN(C)C2 (stereo not drawn) [FF13, 1-(4-(benzylamino)-6,8-dimethyl-5,6,7,8-tetrahydropyrido[4,3-d]pyrimidin-2-yl)-2-methyl-1H-indole-4-carboxamide]	< 100			
NC(=O)c1cccc2c1cnn2-c1nc2c(c(NCc3ccccc3)n1)CNCC2 [FF33, 1-(4-(benzylamino)-5,6,7,8-tetrahydropyrido[4,3-d]pyrimidin-2-yl)-1H-indazole-4-carboxamide]	< 1000			
Cc1[nH]c2ccccc2c1-c1nc2c(c(NCc3ccccc3)n1)CCCC2 [FF36, N-benzyl-2-(2-methyl-1H-indol-3-yl)-5,6,7,8-tetrahydroquinazolin-4-amine]		< 10000	< 10000	
NC(=O)c1cccc2c1cnn2-c1nc2c(c(NCc3ccccc3)n1)COCC2 [FF04, 1-(4-(benzylamino)-7,8-dihydro-5H-pyrano[4,3-d]pyrimidin-2-yl)-1H-indazole-4-carboxamide]	< 300			

Continued, in another order:

IC50 (p97) [nM]	IC50 [1] [nM]	IC50 (A549 cells; [2]) [nM]	Compound	IC50 (A549 cells; A549, 72 h) [nM]
< 100	< 3000	< 3000	Cc1[nH]c2c(C(N)=O)cccc2c1-c1nc2c(c(NCc3ccccc3)n1)COCC2 [FF10, 3-(4-(benzylamino)-7,8-dihydro-5H-pyrano[4,3-d]pyrimidin-2-yl)-2-methyl-1H-indole-7-carboxamide]	
< 100	< 1000	< 3000	Cc1cc2c(C(N)=O)cccc2n1-c1nc(NCc2ccccc2)c2c(n1)C(C)CNC2 (stereo not drawn) [FF19, 1-(4-(benzylamino)-8-methyl-5,6,7,8-tetrahydropyrido[4,3-d]pyrimidin-2-yl)-2-methyl-1H-indole-4-carboxamide]	
< 100	< 10000	< 10000	NCc1cc2c(C(N)=O)cccc2n1-c1nc(NCc2ccccc2)c2c(n1)OCCC2 [FF32, 2-(aminomethyl)-1-(4-(benzylamino)-6,7-dihydro-5H-pyrano[2,3-d]pyrimidin-2-yl)-1H-indole-4-carboxamide]	
< 30	< 3000	< 3000	Cc1cc2c(C(N)=O)cccc2n1-c1nc2c(c(NCc3cccc(F)c3)n1)NCCC2 [FF25, 1-(4-((3-fluorobenzyl)amino)-5,6,7,8-tetrahydropyrido[3,2-d]pyrimidin-2-yl)-2-methyl-1H-indole-4-carboxamide]	
< 30	< 3000	< 3000	COc1nc2c(C(N)=O)cccc2n1-c1nc(NCc2ccccc2)c2c(n1)OCCC2 [FF24, 1-(4-(benzylamino)-6,7-dihydro-5H-pyrano[2,3-d]pyrimidin-2-yl)-2-methoxy-1H-benzo[d]imidazole-4-carboxamide]	
< 30	< 1000	< 1000	Cc1cc2c(C(N)=O)cccc2n1-c1nc2c(c(NCc3ccccc3)n1)N(C)CCC2 [FF21, 1-(4-(benzylamino)-5-methyl-5,6,7,8-tetrahydropyrido[3,2-d]pyrimidin-2-yl)-2-methyl-1H-indole-4-carboxamide]	
< 30		< 1000	NC(=O)c1cccc2c1cc(CO)n2-c1nc2c(c(NCc3ccccc3)n1)CCCN2 [FF17, 1-(4-(benzylamino)-5,6,7,8-tetrahydropyrido[2,3-d]pyrimidin-2-yl)-2-(hydroxymethyl)-1H-indole-4-carboxamide]	
< 30		< 10000	NC(=O)c1cccc2c1cnn2-c1nc(NCc2cccc(F)c2)c2c(n1)OCCC2 [FF16, 1-(4-((3-fluorobenzyl)amino)-6,7-dihydro-5H-pyrano[2,3-d]pyrimidin-2-yl)-1H-indazole-4-carboxamide]	
